Data: US9686986B2, “Herbicidal compounds” (SYNGENTA LIMITED, priority 2011, dated 2017)

Legend:
Assay in all cases: Glasshouse herbicide test, pre- and post-emergence, percentage damage
Assay type in all cases: in vivo
[1] = test system: Echinochloa crus-galli (ECHCG); settings: 1000 g/h, evaluated after 13 days, five point scale; for percentage damage caused to the plant, ECHCG, POST Application: post-emergence; for percentage damage caused to the plant, ECHCG, PRE Application: pre-emergence
Method: (§1) Seeds of a variety of test species are sown in standard soil in pots (Alopecurus myosuroides (ALOMY), Setaria faberi (SETFA), Stellaria media (STEME), Echinochloa crus-galli (ECHCG), Solanum nigrum (SOLNI), Amaranthus retoflexus (AMARE), Ipomoea hederacea (IPOHE), Lolium perenne (LOLPE). After cultivation for one day (pre-emergence) or after 8 days cultivation (post-emergence) under controlled conditions in a glasshouse (at 24/16° C., day/night; 14 hours light; 65% humidity), the plants are sprayed with an aqueous spray solution derived from the formulation of the technical active ingredient in acetone/water (50:50) solution containing 0.5% Tween 20 (polyoxyethelyene sorbitan monolaurate, CAS RN 9005-64-5). Compounds ae applied at 1000 g/h. The test plants are then grown in a glasshouse under controlled conditions in a glasshouse (at 24/16° C., day/night; 14 hours light; 65% humidity) and watered twice daily. After 13 days for pre and post-emergence, the test is evaluated for the percentage damage caused to the plant. The biological activities are shown in the following table on a five point scale (5=80-100%; 4=60-79%; 3=40-59%; 2=20-39%; 1=0-19%).

[2] = test system: Ipomoea hederacea (IPOHE); settings: 1000 g/h, evaluated after 13 days, five point scale; for percentage damage caused to the plant, IPOHE, POST Application: post-emergence; for percentage damage caused to the plant, IPOHE, PRE Application: pre-emergence
Method: as §1

[3] = test system: Alopecurus myosuroides (ALOMY); settings: 1000 g/h, evaluated after 13 days, five point scale; for percentage damage caused to the plant, ALOMY, POST Application: post-emergence; for percentage damage caused to the plant, ALOMY, PRE Application: pre-emergence
Method: as §1

[4] = test system: Solanum nigrum (SOLNI); settings: 1000 g/h, evaluated after 13 days, five point scale; for percentage damage caused to the plant, SOLNI, POST Application: post-emergence; for percentage damage caused to the plant, SOLNI, PRE Application: pre-emergence
Method: as §1

[5] = test system: Amaranthus retoflexus (AMARE); settings: 1000 g/h, evaluated after 13 days, five point scale (Table B1); for percentage damage caused to the plant, AMARE, POST Application: post-emergence; for percentage damage caused to the plant, AMARE, PRE Application: pre-emergence
Method: as §1

[6] = test system: Setaria faberi (SETFA); settings: 1000 g/h, evaluated after 13 days, five point scale; for percentage damage caused to the plant, SETFA, POST Application: post-emergence; for percentage damage caused to the plant, SETFA, PRE Application: pre-emergence
Method: as §1

Cn1nnnc1NC(=O)c1ccc(S(C)(=O)=O)c(COCC(F)(F)F)c1Cl [Compound 1.001]
5 (5=80-100%): percentage damage caused to the plant, ECHCG, POST Application [1] | percentage damage caused to the plant, ECHCG, PRE Application [1] | percentage damage caused to the plant, IPOHE, POST Application [2] | percentage damage caused to the plant, IPOHE, PRE Application [2] | percentage damage caused to the plant, ALOMY, POST Application [3] | percentage damage caused to the plant, ALOMY, PRE Application [3] | percentage damage caused to the plant, SOLNI, POST Application [4] | percentage damage caused to the plant, SOLNI, PRE Application [4] | percentage damage caused to the plant, AMARE, POST Application [5] | percentage damage caused to the plant, AMARE, PRE Application [5] | percentage damage caused to the plant, SETFA, POST Application [6] | percentage damage caused to the plant, SETFA, PRE Application [6]

Cn1nnnc1NC(=O)c1ccc(C(F)(F)F)cc1S(C)(=O)=O [Compound 1.003]
5 (5=80-100%): percentage damage caused to the plant, ECHCG, POST Application [1] | percentage damage caused to the plant, ECHCG, PRE Application [1] | percentage damage caused to the plant, IPOHE, POST Application [2] | percentage damage caused to the plant, IPOHE, PRE Application [2] | percentage damage caused to the plant, ALOMY, POST Application [3] | percentage damage caused to the plant, ALOMY, PRE Application [3] | percentage damage caused to the plant, SOLNI, POST Application [4] | percentage damage caused to the plant, SOLNI, PRE Application [4] | percentage damage caused to the plant, AMARE, POST Application [5] | percentage damage caused to the plant, AMARE, PRE Application [5] | percentage damage caused to the plant, SETFA, POST Application [6] | percentage damage caused to the plant, SETFA, PRE Application [6]

CCCn1nnnc1NC(=O)c1cc(Cl)ccc1Cl [Compound 1.004]
5 (5=80-100%): percentage damage caused to the plant, IPOHE, POST Application [2] | percentage damage caused to the plant, SOLNI, POST Application [4] | percentage damage caused to the plant, AMARE, PRE Application [5]
4 (4=60-79%): percentage damage caused to the plant, SOLNI, PRE Application [4] | percentage damage caused to the plant, AMARE, POST Application [5]
1 (1=0-19%): percentage damage caused to the plant, ECHCG, POST Application [1] | percentage damage caused to the plant, ECHCG, PRE Application [1] | percentage damage caused to the plant, IPOHE, PRE Application [2] | percentage damage caused to the plant, ALOMY, POST Application [3] | percentage damage caused to the plant, ALOMY, PRE Application [3] | percentage damage caused to the plant, SETFA, POST Application [6] | percentage damage caused to the plant, SETFA, PRE Application [6]

CCc1nc(C(C)F)ccc1C(=O)Nc1nnnn1C (stereo not drawn) [Compound 1.005]
3 (3=40-59%): percentage damage caused to the plant, ALOMY, PRE Application [3] | percentage damage caused to the plant, SETFA, PRE Application [6]
5 (5=80-100%): percentage damage caused to the plant, ECHCG, POST Application [1] | percentage damage caused to the plant, ECHCG, PRE Application [1] | percentage damage caused to the plant, IPOHE, POST Application [2] | percentage damage caused to the plant, IPOHE, PRE Application [2] | percentage damage caused to the plant, SOLNI, POST Application [4] | percentage damage caused to the plant, SOLNI, PRE Application [4] | percentage damage caused to the plant, AMARE, POST Application [5] | percentage damage caused to the plant, AMARE, PRE Application [5]
2 (2=20-39%): percentage damage caused to the plant, ALOMY, POST Application [3] | percentage damage caused to the plant, SETFA, POST Application [6]

COCCOCc1nc(C(C)(F)F)ccc1C(=O)Nc1nnnn1C [Compound 1.008]
5 (5=80-100%): percentage damage caused to the plant, ECHCG, POST Application [1] | percentage damage caused to the plant, ECHCG, PRE Application [1] | percentage damage caused to the plant, IPOHE, POST Application [2] | percentage damage caused to the plant, IPOHE, PRE Application [2] | percentage damage caused to the plant, ALOMY, POST Application [3] | percentage damage caused to the plant, ALOMY, PRE Application [3] | percentage damage caused to the plant, SOLNI, POST Application [4] | percentage damage caused to the plant, SOLNI, PRE Application [4] | percentage damage caused to the plant, AMARE, POST Application [5] | percentage damage caused to the plant, AMARE, PRE Application [5] | percentage damage caused to the plant, SETFA, POST Application [6] | percentage damage caused to the plant, SETFA, PRE Application [6]

Cn1nnnc1NC(=O)c1cc(Cl)ccc1C(F)(F)F [Compound 1.009]
2 (2=20-39%): percentage damage caused to the plant, ECHCG, POST Application [1] | percentage damage caused to the plant, ECHCG, PRE Application [1]
4 (4=60-79%): percentage damage caused to the plant, IPOHE, PRE Application [2]
5 (5=80-100%): percentage damage caused to the plant, IPOHE, POST Application [2] | percentage damage caused to the plant, ALOMY, POST Application [3] | percentage damage caused to the plant, ALOMY, PRE Application [3] | percentage damage caused to the plant, SOLNI, POST Application [4] | percentage damage caused to the plant, SOLNI, PRE Application [4] | percentage damage caused to the plant, AMARE, POST Application [5] | percentage damage caused to the plant, AMARE, PRE Application [5]
1 (1=0-19%): percentage damage caused to the plant, SETFA, POST Application [6] | percentage damage caused to the plant, SETFA, PRE Application [6]

Cn1nnnc1NC(=O)c1cc(F)ccc1C(F)(F)F [Compound 1.010]
2 (2=20-39%): percentage damage caused to the plant, SETFA, POST Application [6] | percentage damage caused to the plant, SETFA, PRE Application [6]
5 (5=80-100%): percentage damage caused to the plant, IPOHE, POST Application [2] | percentage damage caused to the plant, IPOHE, PRE Application [2] | percentage damage caused to the plant, ALOMY, POST Application [3] | percentage damage caused to the plant, ALOMY, PRE Application [3] | percentage damage caused to the plant, SOLNI, POST Application [4] | percentage damage caused to the plant, SOLNI, PRE Application [4] | percentage damage caused to the plant, AMARE, POST Application [5] | percentage damage caused to the plant, AMARE, PRE Application [5]
4 (4=60-79%): percentage damage caused to the plant, ECHCG, POST Application [1] | percentage damage caused to the plant, ECHCG, PRE Application [1]

Cn1nnnc1NC(=O)c1cc(F)c(F)cc1[N+](=O)[O-] [Compound 1.011]
2 (2=20-39%): percentage damage caused to the plant, ECHCG, POST Application [1] | percentage damage caused to the plant, IPOHE, POST Application [2] | percentage damage caused to the plant, SOLNI, POST Application [4]
5 (5=80-100%): percentage damage caused to the plant, AMARE, PRE Application [5]
1 (1=0-19%): percentage damage caused to the plant, ECHCG, PRE Application [1] | percentage damage caused to the plant, IPOHE, PRE Application [2] | percentage damage caused to the plant, ALOMY, POST Application [3] | percentage damage caused to the plant, ALOMY, PRE Application [3] | percentage damage caused to the plant, SOLNI, PRE Application [4] | percentage damage caused to the plant, SETFA, POST Application [6] | percentage damage caused to the plant, SETFA, PRE Application [6]
3 (3=40-59%): percentage damage caused to the plant, AMARE, POST Application [5]

Cn1nnnc1NC(=O)c1cc(Br)c(Cl)cc1F [Compound 1.012]
1 (1=0-19%): percentage damage caused to the plant, ECHCG, PRE Application [1] | percentage damage caused to the plant, IPOHE, PRE Application [2] | percentage damage caused to the plant, ALOMY, PRE Application [3] | percentage damage caused to the plant, SOLNI, PRE Application [4] | percentage damage caused to the plant, SETFA, PRE Application [6]
4 (4=60-79%): percentage damage caused to the plant, SOLNI, POST Application [4] | percentage damage caused to the plant, AMARE, PRE Application [5] | percentage damage caused to the plant, SETFA, POST Application [6]
5 (5=80-100%): percentage damage caused to the plant, IPOHE, POST Application [2] | percentage damage caused to the plant, AMARE, POST Application [5]
2 (2=20-39%): percentage damage caused to the plant, ALOMY, POST Application [3]
3 (3=40-59%): percentage damage caused to the plant, ECHCG, POST Application [1]
